Measurements published in patent US20260335279A1, “METHODS OF TREATING ISCHEMIA-REPERFUSION INJURIES” (University of Cincinnati, priority 2022, published 2026).

Legend:
KLF5 = KLF5 protein expression (Western blot) in cardiac tissue, I/R mice; assay type: in vivo, mouse (C57BL/6); conditions: 30 minutes of ischemia; ML264 25 mg/kg/12 h intraperitoneal
Method: The myocardial ischemia/reperfusion surgical protocol was applied as follows. Mice were anesthetized with 2% isoflurane inhalation until anesthesia was achieved. The animals' body temperature was maintained at 37 °C throughout the surgical procedure using a heating pad. A tracheal tube was placed via tracheal intubation and the respiration rate was set at 150 strokes/min with a tidal volume of 200 μL, using Minivent ventilator for mice (Model 845, Harvard Apparatus). A 1.2 cm incision was made over the left chest. After retraction of the pectoral major and minor muscles, the fourth intercostal space was exposed. […] The left anterior descending coronary artery (LAD) was then located, sutured, and ligated at a site 3-4 mm distal to the origin of the artery under the left atrium using a 6-0 silk suture. The heart was allowed to stabilize for 15 min and right after, ischemia was induced by tightening the suture against a small piece of polyethylene tube. […] The mouse was then monitored during the recovery period, which was generally completed within 3 to 5 minutes. […]
Isolated myocardial tissue/isolated primary murine cardiomyocytes were homogenized in radioimmunoprecipitation assay buffer (RIPA buffer) containing protease and phosphatase inhibitors (Thermo Fischer Scientific, Cat. No.: A32959). […] Relative densitometry was determined, and the β-actin protein was used as a loading control. […]

[1] = tested on: myocardial ischemia-reperfusion injury in mice; assay: Infarct size evaluation upon Evans Blue/TTC staining after myocardial I/R; assay type: in vivo, mouse (C57BL/6); conditions: ML264 25 mg/kg/12 h intraperitoneal; 30 min ischemia, 24 h reperfusion; vs vehicle
Method: The myocardial ischemia/reperfusion surgical protocol was applied as follows. Mice were anesthetized with 2% isoflurane inhalation until anesthesia was achieved. The animals' body temperature was maintained at 37 °C throughout the surgical procedure using a heating pad. A tracheal tube was placed via tracheal intubation and the respiration rate was set at 150 strokes/min with a tidal volume of 200 μL, using Minivent ventilator for mice (Model 845, Harvard Apparatus). A 1.2 cm incision was made over the left chest. After retraction of the pectoral major and minor muscles, the fourth intercostal space was exposed. […] The left anterior descending coronary artery (LAD) was then located, sutured, and ligated at a site 3-4 mm distal to the origin of the artery under the left atrium using a 6-0 silk suture. The heart was allowed to stabilize for 15 min and right after, ischemia was induced by tightening the suture against a small piece of polyethylene tube. At the end of the 30-minute ischemia period, the ligature was released for the induction of reperfusion, and then the manual evacuation of air and closure of muscle and skin were performed. The mouse was then monitored during the recovery period, which was generally completed within 3 to 5 minutes. Sustain-released buprenorphine (BupSR, 0.5 mg/kg body weight) was provided by subcutaneous injection. Mice were then left to recover until the end of the reperfusion (2 hours, 12 hours, 24 hours, or 4 weeks). The sham group underwent the same surgical procedure except that the LAD was not occluded.
Double staining of the heart with Evans Blue dye and Triphenyl-Tetrazolium Chloride (TTC) solution was employed for infarct size measurements. Mice were anesthetized upon 3% isoflurane inhalation. The thorax was cut and opened, and hearts were gently excised. Then, the aorta was cannulated and perfused with 5 mL of normal saline. The suture was re-tightened and Evans Blue solution (2.5% in WFI) was slowly infused through the aorta, to differentiate the ischemic part of the myocardium from the non-occluded, normally perfused area. The hearts were sliced into 1-2 mm sections immediately following. The heart slices were incubated with TTC solution (1% in PBS, pH=7.4) at 37 °C for 20 min. In this way, the necrotic area is delimited as a white area, while the viable tissue is stained red. […] The overall size of each slice (All/A), the area-at-risk (R), and the infarct area (I) were determined in a blinded manner for each slice using ImageJ software, and the percentages of Area at Risk (R/A) % and I/R % were calculated. […]
Administration of these two compounds was performed 5 minutes before the reopening of the coronary artery and infarct size was assessed upon 30 minutes of ischemia followed by 24 hours of reperfusion therapy.

Col1a1 = Col1a1 mRNA in chronic model of I/R injury (real-time PCR); assay type: in vivo, mouse (C57BL/6); conditions: 4 weeks post-I/R; vs IR group treated with vehicle
Method: (§1) The myocardial ischemia/reperfusion surgical protocol was applied as follows. Mice were anesthetized with 2% isoflurane inhalation until anesthesia was achieved. The animals' body temperature was maintained at 37 °C throughout the surgical procedure using a heating pad. A tracheal tube was placed via tracheal intubation and the respiration rate was set at 150 strokes/min with a tidal volume of 200 μL, using Minivent ventilator for mice (Model 845, Harvard Apparatus). A 1.2 cm incision was made over the left chest. After retraction of the pectoral major and minor muscles, the fourth intercostal space was exposed. […] The mouse was then monitored during the recovery period, which was generally completed within 3 to 5 minutes. […]
(§2) Total RNA was purified from heart tissue using the TRIzol reagent according to the instructions of the manufacturer (ThermoFischer Scientific, Cat. No.: 15596018). cDNA synthesis was performed using the Applied Biosystems High Capacity cDNA Reverse Transcription Kit (ThermoFischer Scientific, Cat. No.: 4368814) from 500 ng RNA, which had been treated with DNAase I (ThermoFischer Scientific, Cat. No.: 18068015). Quantitative real-time PCR was performed with the SYBR Select Master Mix (ThermoFischer Scientific, Cat. No.: 4472903) using the manufacturer's recommendations. […]

NOX4 = NOX4 mRNA in myocardium after I/R (real-time PCR); assay type: in vivo, mouse (C57BL/6); conditions: ML264 treatment; 30 min ischemia, 2 h reperfusion
Method: as §1, §2

Glut4 = Glut4 mRNA after I/R; assay type: in vivo, mouse; conditions: ML-264 treatment; vs I/R group treated with vehicle
Method: as §1, §2

CN(C(=O)CNC(=O)/C=C/c1cccc(Cl)c1)C1CCS(=O)(=O)CC1 [ML264]
KLF5 protein expression in cardiac tissue (KLF5): suppression was confirmed
infarct size [1]: significant reduction
mRNA levels of Col1a1 (Col1a1): decreased
NOX4 mRNA levels (NOX4): suppressed
Glut4 mRNA levels (Glut4): significant suppression
